Assay results: patent US11370774B2, “Substituted benzofuran, benzopyrrole, benzothiophene, and structurally related complement inhibitors” (BioCryst Pharmaceuticals, Inc., priority 2018, dated 2022)

Target: Factor D (Homo sapiens (Human), UniProt P00746)
Test: Factor D esterolytic assay (Z-Lys-SBzl substrate, DTNB, 405 nm)
Assay type: biochemical
Settings: Z-Lys-SBzl 1.29 mM, pH 7.5, 10% DMSO, tested a minimum of three times, read-out: Measured Ki (IC50) Value for Compounds: IC50
Method in brief: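 Thioester hydrolysis (Z-Lys-SBzl, 1.29 mM) by human Factor D ([…]) detected through DTNB color at 405 nm over 600 sec, minus 690 nm background. Buffer: 100 mM HEPES pH 7.5, 500 mM NaCl, 10% DMSO; optional room-temperature preincubation before substrate. IC50 derived from percent rate inhibition; at least three runs.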

Chain of Factor D (P00746 26-253): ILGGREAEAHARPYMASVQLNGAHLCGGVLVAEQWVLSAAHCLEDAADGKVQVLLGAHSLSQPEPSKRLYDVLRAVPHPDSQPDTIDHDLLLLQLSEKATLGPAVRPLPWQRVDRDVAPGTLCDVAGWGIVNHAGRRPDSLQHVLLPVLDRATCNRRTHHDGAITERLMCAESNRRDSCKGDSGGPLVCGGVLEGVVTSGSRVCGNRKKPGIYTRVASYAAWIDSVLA

IC50 | SMILES
< 1000 nM | NCc1cccc(-c2cc(COc3ccccc3CC(=O)O)cc3cc(COCc4ccccc4)oc23)c1 [Compound 284f, 2-(2-((7-(3-(aminomethyl)phenyl)-2-((benzyloxy)methyl)benzofuran-5-yl)methoxy)phenyl)acetic acid]
< 1000 nM | CCc1ccc(CC(=O)O)c(OCc2cc(-c3cccc(CN)c3F)c3occc3c2)c1 [Compound 315f, 2-(2-((7-(3-(aminomethyl)-2-fluorophenyl)benzofuran-5-yl)methoxy)-4-ethylphenyl)acetic acid]
< 1000 nM | Cc1oc2c(-c3cccc(CN)c3)cc(COc3ccccc3CC(=O)O)cc2c1Br [Compound 425f, 2-(2-((7-(3-(aminomethyl)phenyl)-3-bromo-2-methylbenzofuran-5-yl)methoxy)phenyl)acetic acid]
< 1000 nM | NCc1cc(F)cc(-c2cc(COc3ccccc3CC(=O)O)cc3ccoc23)c1 [Compound 73c, 2-(2-((7-(3-(aminomethyl)-5-fluorophenyl)benzofuran-5-yl)methoxy)phenyl)acetic acid]
< 1000 nM | NCc1cccc(-c2cc(COc3ccccc3CC(=O)O)cc3c(C(F)(F)F)coc23)c1F [Compound 173b, 2-(2-((7-(3-(aminomethyl)-2-fluorophenyl)-3-(trifluoromethyl)benzofuran-5-yl)methoxy)phenyl)acetic acid]
< 1000 nM | COCc1cc2cc(COc3cc(F)ccc3CC(=O)O)cc(-c3ccnc(CN)c3)c2o1 [Compound 515c, 2-(2-((7-(2-(aminomethyl)pyridin-4-yl)-2-(methoxymethyl)benzofuran-5-yl)methoxy)-4-fluorophenyl)acetic acid]
< 1000 nM | NCc1nccc(-c2cc(COc3ccc(F)cc3CC(=O)O)c(F)c3ccoc23)c1F [Compound 388d, 2-(2-((7-(2-(aminomethyl)-3-fluoropyridin-4-yl)-4-fluorobenzofuran-5-yl)methoxy)-5-fluorophenyl)acetic acid]
< 1000 nM | COCc1cc2cc(COc3ccc(F)cc3CC(=O)O)cc(-c3ccnc(CN)c3F)c2o1 [Compound 528d]
1000 to 10000 nM | NCc1cccc(-c2cc(C(=O)Nc3ccccc3CC(=O)O)nc3ccoc23)c1 [Compound 255c, 2-(2-(7-(3-(aminomethyl)phenyl)furo[3,2-b]pyridine-5-carboxamido)phenyl)acetic acid]
< 1000 nM | NCc1cccc(-c2cc(COc3cc(-c4ccoc4)ccc3CC(=O)O)cc3ccoc23)c1 [Compound 313c, 2-(2-((7-(3-(aminomethyl)phenyl)benzofuran-5-yl)methoxy)-4-(furan-3-yl)phenyl)acetic acid]
< 1000 nM | COc1ccc(CC(=O)O)c(OCc2cc(-c3ccnc(CN)c3)c3occc3c2)c1 [Compound 482b, 2-(2-((7-(2-(aminomethyl)pyridin-4-yl)benzofuran-5-yl)methoxy)-4-methoxyphenyl)acetic acid]
< 1000 nM | COCc1cc2cc(COc3ccccc3CC(=O)O)cc(-c3ccnc(CN)c3F)c2o1 [Compound 120c, 2-(2-((7-(2-(aminomethyl)-3-fluoropyridin-4-yl)-2-(methoxymethyl)benzofuran-5-yl)methoxy)phenyl)acetic acid]
< 1000 nM | CC(=O)Nc1ccc(CC(=O)O)c(OCc2cc(-c3ccnc(CN)c3F)c3occc3c2)c1 [Compound 438c, 2-(4-acetamido-2-((7-(2-(aminomethyl)-3-fluoropyridin-4-yl)benzofuran-5-yl)methoxy)phenyl)acetic acid]
< 1000 nM | NCc1cccc(-c2cc(C(=O)Nc3ccccc3CC(=O)O)c(F)c3ccoc23)c1 [Compound 241c, 2-(2-(7-(3-(aminomethyl)phenyl)-4-fluorobenzofuran-5-carboxamido)phenyl)acetic acid]
< 1000 nM | COCc1cc2cc(COc3cc(F)ccc3CC(=O)O)cc(-c3cccc(CN)c3F)c2o1 [Compound 478b, 2-(2-((7-(3-(aminomethyl)-2-fluorophenyl)-2-(methoxymethyl)benzofuran-5-yl)methoxy)-4-fluorophenyl)acetic acid]
1000 to 10000 nM | NCc1cccc(-c2nc(C(=O)Nc3ccccc3CC(=O)O)cc3ccncc23)c1 [Compound 35f, 2-(2-(1-(3-(aminomethyl)phenyl)-2,7-naphthyridine-3-carboxamido)phenyl)acetic acid]
1000 to 10000 nM | NCc1ccc(-c2cc(COc3ccccc3CC(=O)O)cc3ccoc23)cc1 [Compound 193c, 2-(2-((7-(4-(aminomethyl)phenyl)benzofuran-5-yl)methoxy)phenyl)acetic acid]
> 10000 nM | NCc1cccc(-c2cc(NC(=O)c3ccccc3N)cc3ccoc23)c1 [Compound 216d, 2-amino-N-(7-(3-(aminomethyl)phenyl)benzofuran-5-yl)benzamide]
< 1000 nM | Cc1ccc(CC(=O)O)c(OCc2cc(-c3ccnc(CN)c3F)c3occc3c2)c1 [Compound 272e, 2-(2-((7-(2-(aminomethyl)-3-fluoropyridin-4-yl)benzofuran-5-yl)methoxy)-4-methylphenyl)acetic acid]
< 1000 nM | NCc1cccc(-c2cc(COc3ccccc3CC(=O)O)cc3cc(CO)oc23)c1F [Compound 94c, 2-(2-((7-(3-(aminomethyl)-2-fluorophenyl)-2-(hydroxymethyl)benzofuran-5-yl)methoxy)phenyl)acetic acid]
< 1000 nM | CC(C)n1ccc2c(-c3ccnc(CN)c3F)cc(COc3cc(F)ccc3CC(=O)O)cc21 [Compound 495d, 2-(2-((4-(2-(aminomethyl)-3-fluoropyridin-4-yl)-1-isopropyl-1H-indol-6-yl)methoxy)-4-fluorophenyl)acetic acid]
< 1000 nM | NCc1cccc(-c2cc(COc3ccccc3CC(=O)O)cc3cc(COCc4cccnc4)oc23)c1 [Compound 302f, 2-(2-((7-(3-(aminomethyl)phenyl)-2-((pyridin-3-ylmethoxy)methyl)benzofuran-5-yl)methoxy)phenyl)acetic acid]
< 1000 nM | NCc1cccc(-c2cc(COc3ccccc3CC(=O)O)cc3[nH]ccc23)c1 [Compound 70a, 2-(2-((4-(3-(aminomethyl)phenyl)-1H-indol-6-yl)methoxy)phenyl)acetic acid]
< 1000 nM | CC(=O)c1ccc(CC(=O)O)c(OCc2cc(-c3cccc(CN)c3)c3occ(C(F)(F)F)c3c2)c1 [Compound 506e, 2-(4-acetyl-2-((7-(3-(aminomethyl)phenyl)-3-(trifluoromethyl)benzofuran-5-yl)methoxy)phenyl)acetic acid]
< 1000 nM | COCc1cc2cc(COc3cc(C(N)=O)ccc3CC(=O)O)cc(-c3cccc(CN)c3)c2o1 [Compound 309h, 2-(2-((7-(3-(aminomethyl)phenyl)-2-(methoxymethyl)benzofuran-5-yl)methoxy)-4-carbamoylphenyl)acetic acid]
> 10000 nM | Nc1ccc2c(-c3cc(COc4ccccc4CC(=O)O)cc4ccoc34)ncnn12 [Compound 204e, 2-(2-((7-(7-aminopyrrolo[2,1-f][1,2,4]triazin-4-yl)benzofuran-5-yl)methoxy)phenyl)acetic acid]

SMILES | IC50
NCc1cccc(-c2cc(CNc3ccccc3CC(=O)O)cc3ccoc23)c1F [Compound 152d, lithium 2-(2-(((7-(3-(aminomethyl)-2-fluorophenyl)benzofuran-5-yl)methyl)amino)phenyl)acetate] | < 1000 nM
